Reference: US7803816B2, “MCH receptor antagonists” (Hoffmann-La Roche Inc., priority 2005, dated 2010)
Where a name gives a salt, the structure may show the parent alone. Read-outs that look alike come from different tables or passages of the source.

Target: T1, recombinant human MCHR1-receptors (Homo sapiens, UniProt Q99705)
T1 construct: expressed in transfected cells
Assay: MCHR filter binding assay (competition binding)
Conditions: membranes from CHO-K1 cells expressing human MCHR1, 0.2 nM [Phe13,[125I]Tyr19]-MCH
Protocol: MCHR Filter Binding Assay
Competition binding assays were performed using membranes from CHO-K1 cells stably expressing the recombinant human MCHR1-receptors. Binding reactions (90 μl, final volume) were carried out at rt by incubating 2.8 μg membranes with 0.2 nM [Phe^13,[^125I]Tyr^19]-MCH (PerkinElmer) in the absence or presence of various concentrations of competing ligands in binding buffer (50 mM HEPES, 2.5 mM CaCl2, 0.05 mM BSA, 1 mM phenanthroline, 0.03 mM Triton X-100). [Phe^13,[^125I]Tyr^19]-MCH was added 15 min following the addition of unlabeled competing ligands, and the reactions incubated for a 1 h period. The reactions were terminated by rapid filtration over pretreated 96-well filter plates (Millipore; MultiScreen 0.65 μm GFB filter plates). Filter Plates were treated for 12 h at 4° C. with a 0.5% polyvinylpyrrolidone solution containing 1% BSA and 0.1% Tween 20, and then washed with an ice-cold solution of 10 mM Tris, pH 7.5 (5×200 μl). The plates were drained following a 5 min incubation with binding buffer (200 μl) at rt. Following termination of the binding reactions, the filters were washed with ice-cold binding buffer (4×200 μl). The filter plates were air dried for 30 min, scintillation cocktail (60 μl) added to each well and radioactivity bound to the plates was determined using a Micro-beta plate reader (Wallace/PerkinElmer).

[1] = read-out: IC50 (nM), in vitro activity (binding assay)
[2] = read-out: IC50 (nM), selected in vitro MCH-R binding data

T1 sequence (Q99705 whole entry): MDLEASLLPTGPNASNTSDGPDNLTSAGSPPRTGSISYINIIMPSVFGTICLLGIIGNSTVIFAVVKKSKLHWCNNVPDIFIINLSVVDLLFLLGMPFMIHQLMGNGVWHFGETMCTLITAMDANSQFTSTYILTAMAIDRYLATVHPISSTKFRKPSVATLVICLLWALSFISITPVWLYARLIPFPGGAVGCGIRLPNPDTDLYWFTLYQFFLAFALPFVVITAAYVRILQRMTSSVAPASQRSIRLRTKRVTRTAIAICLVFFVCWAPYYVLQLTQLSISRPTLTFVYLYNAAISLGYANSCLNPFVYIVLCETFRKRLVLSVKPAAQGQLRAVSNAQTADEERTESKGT

Compound | IC50 [1] [nM] | IC50 [2] [nM]
1-((3R,4R)-1-Indan-2-ylmethyl-3-methoxy-piperidin-4-yl)-2,5-dimethyl-1H-benzoimidazole; dihydrochloride [Example 55] | 200 to 5000 | –
Cc1ccc2c(c1)nc(C)n2[C@@H]1CCN(C[C@@H]2Cc3ccc(NC(=O)C(C)C)cc3C2)C[C@H]1CO (racemic) [Example 3, N-{(R)-2-[4-(2,5-Dimethyl-benzoimidazol-1-yl)-3-hydroxymethyl-piperidin-1-ylmethyl]-indan-5-yl}-isobutyramide] | < 20 | –
Cc1ccc2c(c1)nc(C(C)C)n2[C@@H]1CCN(CC2Cc3ccc(NC(=O)C4CC4)cc3C2)C[C@H]1O (stereo in doubt) [Example 2, Cyclopropanecarboxylic acid {(R)-2-[(3R,4R)-3-hydroxy-4-(2-isopropyl-5-methyl-benzoimidazol-1-yl)-piperidin-1-ylmethyl]-indan-5-yl}-amide] | 20 to 200 | –
CCOc1nc2cc(C)ccc2n1C1CCN(CC2Cc3ccc(NC(=O)C(C)C)cc3C2)CC1 (stereo in doubt) [Example 4, N-{(S)-2-[4-(2-Ethoxy-5-methyl-benzoimidazol-1-yl)-piperidin-1-ylmethyl]-indan-5-yl}-isobutyramide] | 20 to 200 | –
CCC(=O)Nc1ccc2c(c1)CC(CN1CC[C@@H](n3c(C)nc4cc(C)ccc43)[C@H](O)C1)C2 (stereo in doubt) [Example 5, N-{(S)-2-[(3R,4R)-4-(2,5-Dimethyl-benzoimidazol-1-yl)-3-hydroxy-piperidin-1-ylmethyl]-indan-5-yl}-propionamide] | 20 to 200 | –
CO[C@@H]1CN(CC2Cc3ccc(Br)cc3C2)CC[C@H]1n1c(C(C)(C)O)nc2cc(C)ccc21 (stereo in doubt) [Example 11, 2-{1-[(3R,4R)-1-((S)-5-Bromo-indan-2-ylmethyl)-3-methoxy-piperidin-4-yl]-5-methyl-1H-benzoimidazol-2-yl}-propan-2-ol] | < 20 | –
CCC(=O)Nc1ccc2c(c1)C[C@H](CN1CCC(n3c(C(C)C)nc4cc(C)ccc43)[C@@H](OC)C1)C2 (stereo in doubt) [Example 32, N-{(R)-2-[(3S,4S)-4-(2-Isopropyl-5-methyl-benzoimidazol-1-yl)-3-methoxy-piperidin-1-ylmethyl]-indan-5-yl}-propionamide] | < 20 | –
CO[C@H]1CN(C[C@@H]2Cc3ccc(NC(=O)C4CC4)cc3C2)CCC1n1c(C2CC2)nc2cc(C)ccc21 (stereo in doubt) [Example 66, Cyclopropanecarboxylic acid {(R)-2-[(3S,4S)-4-(2-cyclopropyl-5-methyl-benzoimidazol-1-yl)-3-methoxy-piperidin-1-ylmethyl]-indan-5-yl}-amide] | < 20 | 12
COC1CN(C[C@H]2Cc3ccc(C#N)cc3C2)CC[C@H]1n1c(C(C)(C)O)nc2cc(C)ccc21 (stereo in doubt) [Example 120, (S)-2-{(3R,4R)-4-[2-(1-Hydroxy-1-methyl-ethyl)-5-methyl-benzoimidazol-1-yl]-3-methoxy-piperidin-1-ylmethyl}-indan-5-carbonitrile] | < 20 | –
Cc1ccc2c(c1)nc(C(C)(C)O)n2[C@@H]1CCN(C[C@H]2Cc3ccc(Br)cc3C2)CC1O (stereo in doubt) [Example 122, (3R,4R)-1-((S)-5-Bromo-indan-2-ylmethyl)-4-[2-(1-hydroxy-1-methyl-ethyl)-5-methyl-benzoimidazol-1-yl]-piperidin-3-ol] | < 20 | –
Cc1ccc2c(c1)nc(C(C)(C)O)n2[C@@H]1CCN(C[C@H]2Cc3ccc(Br)cc3C2)CC1O (stereo in doubt) [Example 126, (3R,4R)-1-((S)-5-Bromo-indan-2-ylmethyl)-4-[2-(1-hydroxy-1-methyl-ethyl)-5-methyl-benzoimidazol-1-yl]-piperidin-3-ol] | – | 2
CO[C@@H]1CN(C[C@H]2Cc3ccc(Br)cc3C2)CC[C@H]1n1c(C)nc2cc(C)ccc21 [Example 1, 1-[(3R,4R)-1-((S)-5-Bromo-indan-2-ylmethyl)-3-methoxy-piperidin-4-yl]-2,5-dimethyl-1H-benzoimidazole] | < 20 | 20
COC(=O)Nc1ccc2c(c1)C[C@H](CN1CCC(n3c(C(C)(C)O)nc4cc(C)ccc43)CC1)C2 [Example 6, ((R)-2-{4-[2-(1-Hydroxy-1-methyl-ethyl)-5-methyl-benzoimidazol-1-yl]-piperidin-1-ylmethyl}-indan-5-yl)-carbamic acid methyl ester] | 20 to 200 | –
Cc1ccc2c(c1)nc(C)n2[C@@H]1CCN(C[C@@H]2Cc3ccc(NC(=O)C(C)C)cc3C2)C[C@H]1OS(C)(=O)=O [Example 7, Methanesulfonic acid 4-(2,5-dimethyl-benzoimidazol-1-yl)-1-((R)-5-isobutyrylamino-indan-2-ylmethyl)-piperidin-3-yl ester] | 20 to 200 | –
CCC(=O)Nc1ccc2c(c1)C[C@H](CN1CCC(n3c(C(C)(C)O)nc4cc(C)ccc43)CC1)C2 [Example 8, N-((R)-2-{4-[2-(1-Hydroxy-1-methyl-ethyl)-5-methyl-benzoimidazol-1-yl]-piperidin-1-ylmethyl}-indan-5-yl)-propionamide] | 20 to 200 | –
Cc1ccc2c(c1)nc(C)n2[C@@H]1CCN(C[C@H]2Cc3ccc(NC(=O)C(C)C)cc3C2)C[C@H]1O [Example 9, N-{(S)-2-[(3R,4R)-4-(2,5-Dimethyl-benzoimidazol-1-yl)-3-hydroxy-piperidin-1-ylmethyl]-indan-5-yl}-isobutyramide; trifluoroacetic acid salt] | 20 to 200 | –
Cc1cc2nc(C)n(C3CCN(C[C@@H]4Cc5ccc(NC(=O)C(C)C)cc5C4)CC3)c2cn1 [Example 10, N-{(R)-2-[4-(2,6-Dimethyl-imidazo[4,5-c]pyridin-3-yl)-piperidin-1-ylmethyl]-indan-5-yl}-isobutyramide; compound with trifluoro-acetic acid] | 200 to 5000 | –
Cc1ccc2c(c1)nc(C(C)(C)O)n2C1CCN(CC2Cc3ccncc3C2)CC1 (centres unmarked) [Example 12, 2-{1-[1-(6,7-Dihydro-5H-[2]pyrindin-6-ylmethyl)-piperidin-4-yl]-5-methyl-1H-benzoimidazol-2-yl}-propan-2-ol] | 20 to 200 | –
Cc1cc2nc(C(C)(C)O)n(C3CCN(CC4Cc5ccc(F)cc5C4)CC3)c2cc1F (centres unmarked) [Example 13, 2-{6-Fluoro-1-[1-(5-fluoro-indan-2-ylmethyl)-piperidin-4-yl]-5-methyl-1H-benzoimidazol-2-yl}-propan-2-ol] | < 20 | –
Cc1ccc2c(c1)nc(C(C)(C)O)n2C1CCN(CC2Cc3ccc(Cl)cc3C2)CC1 (centres unmarked) [Example 14, 2-{1-[1-(5-Chloro-indan-2-ylmethyl)-piperidin-4-yl]-5-methyl-1H-benzoimidazol-2-yl}-propan-2-ol] | < 20 | –
Cc1ccc2c(c1)nc(C)n2[C@H]1CCN(C[C@@H]2Cc3ccc(NC(=O)C(C)C)cc3C2)C[C@@H]1OCC(C)(C)O [Example 15, N-{(R)-2-[(3S,4S)-4-(2,5-Dimethyl-benzoimidazol-1-yl)-3-(2-hydroxy-2-methyl-propoxy)-piperidin-1-ylmethyl]-indan-5-yl}-isobutyramide; dihydrochloride] | < 20 | –
CO[C@@H]1CN(C[C@@H]2Cc3ccc(NC(=O)C(C)C)cc3C2)CC[C@H]1n1c(C)nc2cc(C)ccc21 [Example 16, N-{(R)-2-[(3R,4R)-4-(2,5-Dimethyl-benzoimidazol-1-yl)-3-methoxy-piperidin-1-ylmethyl]-indan-5-yl}-isobutyramide; dihydrochloride] | 20 to 200 | –
CO[C@H]1CN(C[C@H]2Cc3ccc(Br)cc3C2)CC[C@@H]1n1c(C(C)C)nc2cc(C)ccc21 [Example 17, 1-[(3S,4S)-1-((S)-5-Bromo-indan-2-ylmethyl)-3-methoxy-piperidin-4-yl]-2-isopropyl-5-methyl-1H-benzoimidazole] | 20 to 200 | –
CO[C@@H]1CN(C[C@H]2Cc3ccc(Br)cc3C2)CC[C@H]1n1c(C(C)C)nc2cc(C)ccc21 [Example 18, 1-[(3R,4R)-1-((S)-5-Bromo-indan-2-ylmethyl)-3-methoxy-piperidin-4-yl]-2-isopropyl-5-methyl-1H-benzoimidazole] | 20 to 200 | –
CO[C@H]1CN(CC2Cc3ccc(Cl)cc3C2)CC[C@@H]1n1c(C)nc2cc(C)ccc21 (stereo partly drawn) [Example 19, 1-[(3S,4S)-1-(5-Chloro-indan-2-ylmethyl)-3-methoxy-piperidin-4-yl]-2,5-dimethyl-1H-benzoimidazole; dihydrochloride] | 20 to 200 | –
CO[C@@H]1CN(CC2Cc3ccc(F)cc3C2)CC[C@H]1n1c(C)nc2cc(C)ccc21 (stereo partly drawn) [Example 20, 1-[(3R,4R)-1-(5-Fluoro-indan-2-ylmethyl)-3-methoxy-piperidin-4-yl]-2,5-dimethyl-1H-benzoimidazole] | 20 to 200 | –
Cc1ccc2c(c1)nc(C)n2[C@@H]1CCN(C[C@@H]2Cc3ccc(NC(=O)C(C)C)cc3C2)C[C@H]1OCC(C)(C)O [Example 21, N-{(R)-2-[(3R,4R)-4-(2,5-Dimethyl-benzoimidazol-1-yl)-3-(2-hydroxy-2-methyl-propoxy)-piperidin-1-ylmethyl]-indan-5-yl}-isobutyramide; dihydrochloride] | 20 to 200 | –
